Test results taken from PubChem BioAssay AID2060902 (Molecular Pharmacology Branch, DTP, NCI, 2025).

Test system: 485368-065-R3-J5-PDC spheroids with HUVEC/MSC, viability
Experiment: Anticancer human tumor 485368-065-R3-J5-PDC patient-derived pancreatic carcinoma cell line growth inhibition [RAS]
Conditions: for IC50: curve of first compound; for viability, T/C: stronger effect = lower value
How it was run: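 Multi-cell-type spheroids: tumor cells plus HUVEC endothelial cells and mesenchymal stem cells. RAS-pathway inhibitors were combined with targeted agents, each dosed in half-log steps down from clinical Cmax, or from 10 microM when Cmax was unknown.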

[1] = second compound 0.0316 µM, first compound 0.0316 µM
[2] = second compound 0.0316 µM, first compound 0.1 µM
[3] = second compound 0.0316 µM, first compound 0.316 µM
[4] = second compound 0.0316 µM, first compound 1 µM
[5] = second compound 0.0316 µM, first compound 3.16 µM
[6] = second compound 0.0316 µM, first compound 10 µM
[7] = second compound 0.1 µM, first compound 0.0316 µM
[8] = second compound 0.1 µM, first compound 0.1 µM
[9] = second compound 0.1 µM, first compound 0.316 µM
[10] = second compound 0.1 µM, first compound 1 µM
[11] = second compound 0.1 µM, first compound 3.16 µM
[12] = second compound 0.1 µM, first compound 10 µM
[13] = second compound 0.316 µM, first compound 0.0316 µM
[14] = second compound 0.316 µM, first compound 0.1 µM
[15] = second compound 0.316 µM, first compound 0.316 µM
[16] = second compound 0.316 µM, first compound 1 µM
[17] = second compound 0.316 µM, first compound 3.16 µM
[18] = second compound 0.316 µM, first compound 10 µM
[19] = second compound 1 µM, first compound 0.0316 µM
[20] = second compound 1 µM, first compound 0.1 µM
[21] = second compound 1 µM, first compound 0.316 µM
[22] = second compound 1 µM, first compound 1 µM
[23] = second compound 1 µM, first compound 3.16 µM
[24] = second compound 1 µM, first compound 10 µM
[25] = second compound 3.16 µM, first compound 0.0316 µM
[26] = second compound 3.16 µM, first compound 0.1 µM
[27] = second compound 3.16 µM, first compound 0.316 µM
[28] = second compound 3.16 µM, first compound 1 µM
[29] = second compound 3.16 µM, first compound 3.16 µM
[30] = second compound 3.16 µM, first compound 10 µM
[31] = second compound 10 µM, first compound 0.0316 µM
[32] = second compound 10 µM, first compound 0.1 µM
[33] = second compound 10 µM, first compound 0.316 µM
[34] = second compound 10 µM, first compound 1 µM
[35] = second compound 10 µM, first compound 3.16 µM
[36] = second compound 10 µM, first compound 10 µM
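Further: spheroids exposed to agents for seven days before readout.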

CC(=O)OC12COC1CC(O)C1(C)C(=O)C(O)C3=C(C)C(OC(=O)C(O)C(NC(=O)OC(C)(C)C)c4ccccc4)CC(O)(C(OC(=O)c4ccccc4)C21)C3(C)C (stereo not drawn) + C#Cc1c(F)ccc2cc(O)cc(-c3ncc4c(N5CC6CCC(C5)N6)nc(OCC56CCCN5CC(F)C6)nc4c3F)c12
IC50 (second compound 0.0316 µM): < 31.6 nM | IC50 (second compound 0.1 µM): < 31.6 nM | IC50 (second compound 0.316 µM): < 31.6 nM | IC50 (second compound 1 µM): < 31.6 nM | IC50 (second compound 3.16 µM): < 31.6 nM | IC50 (second compound 10 µM): < 31.6 nM | viability, T/C [1]: 12.5% | viability, T/C [2]: 12.5% | viability, T/C [3]: 13% | viability, T/C [4]: 12.7% | viability, T/C [5]: 18.7% | viability, T/C [6]: 23.6% | viability, T/C [7]: 11% | viability, T/C [8]: 10.2% | viability, T/C [9]: 14.2% | viability, T/C [10]: 14.4% | viability, T/C [11]: 19.8% | viability, T/C [12]: 16.9% | viability, T/C [13]: 13% | viability, T/C [14]: 13.3% | viability, T/C [15]: 17.1% | viability, T/C [16]: 14.9% | viability, T/C [17]: 15.4% | viability, T/C [18]: 14.4% | viability, T/C [19]: 11.2% | viability, T/C [20]: 13.9% | viability, T/C [21]: 12.4% | viability, T/C [22]: 16.5% | viability, T/C [23]: 14.7% | viability, T/C [24]: 26.3% | viability, T/C [25]: 11.3% | viability, T/C [26]: 9.14% | viability, T/C [27]: 12% | viability, T/C [28]: 15.7% | viability, T/C [29]: 19.1% | viability, T/C [30]: 16.1% | viability, T/C [31]: 12.9% | viability, T/C [32]: 11.2% | viability, T/C [33]: 10.8% | viability, T/C [34]: 14.3% | viability, T/C [35]: 14.7% | viability, T/C [36]: 19.1%

Cc1nc(N2CCC3(CC2)COC(C)C3N)c(CO)nc1Sc1ccnc(N)c1Cl (stereo not drawn) + C#Cc1c(F)ccc2cc(O)cc(-c3ncc4c(N5CC6CCC(C5)N6)nc(OCC56CCCN5CC(F)C6)nc4c3F)c12
IC50 (second compound 0.0316 µM): > 10000 nM | IC50 (second compound 0.1 µM): > 10000 nM | IC50 (second compound 0.316 µM): 1910 nM | IC50 (second compound 1 µM): 821 nM | IC50 (second compound 3.16 µM): 106 nM | IC50 (second compound 10 µM): < 31.6 nM | viability, T/C [1]: 98.3% | viability, T/C [2]: 88.5% | viability, T/C [3]: 87.3% | viability, T/C [4]: 75.1% | viability, T/C [5]: 60% | viability, T/C [6]: 58.8% | viability, T/C [7]: 110% | viability, T/C [8]: 92.3% | viability, T/C [9]: 74% | viability, T/C [10]: 62.7% | viability, T/C [11]: 63.6% | viability, T/C [12]: 51.8% | viability, T/C [13]: 101% | viability, T/C [14]: 89.6% | viability, T/C [15]: 78.5% | viability, T/C [16]: 52.4% | viability, T/C [17]: 47.5% | viability, T/C [18]: 44% | viability, T/C [19]: 91.5% | viability, T/C [20]: 77.2% | viability, T/C [21]: 56.7% | viability, T/C [22]: 47.6% | viability, T/C [23]: 42.2% | viability, T/C [24]: 30% | viability, T/C [25]: 65.9% | viability, T/C [26]: 49.7% | viability, T/C [27]: 39.1% | viability, T/C [28]: 31.9% | viability, T/C [29]: 24.7% | viability, T/C [30]: 21.6% | viability, T/C [31]: 36.3% | viability, T/C [32]: 29.7% | viability, T/C [33]: 24.3% | viability, T/C [34]: 19.9% | viability, T/C [35]: 19.7% | viability, T/C [36]: 12.8%

NC1c2ccccc2OC12CCN(c1cnc3c(N4CCCc5ncccc54)n[nH]c3n1)CC2 (stereo not drawn) + C#Cc1c(F)ccc2cc(O)cc(-c3ncc4c(N5CC6CCC(C5)N6)nc(OCC56CCCN5CC(F)C6)nc4c3F)c12
IC50 (second compound 0.0316 µM): > 10000 nM | IC50 (second compound 0.1 µM): 2380 nM | IC50 (second compound 0.316 µM): 1020 nM | IC50 (second compound 1 µM): 117 nM | IC50 (second compound 3.16 µM): < 31.6 nM | IC50 (second compound 10 µM): < 31.6 nM | viability, T/C [1]: 82.1% | viability, T/C [2]: 79.2% | viability, T/C [3]: 70.9% | viability, T/C [4]: 66.3% | viability, T/C [5]: 72.1% | viability, T/C [6]: 55% | viability, T/C [7]: 76% | viability, T/C [8]: 72.9% | viability, T/C [9]: 61.7% | viability, T/C [10]: 60.7% | viability, T/C [11]: 44.2% | viability, T/C [12]: 43.9% | viability, T/C [13]: 69.9% | viability, T/C [14]: 61.6% | viability, T/C [15]: 58.6% | viability, T/C [16]: 54.4% | viability, T/C [17]: 35.5% | viability, T/C [18]: 28.8% | viability, T/C [19]: 60.3% | viability, T/C [20]: 47.4% | viability, T/C [21]: 43.4% | viability, T/C [22]: 37.9% | viability, T/C [23]: 28.9% | viability, T/C [24]: 18.9% | viability, T/C [25]: 40% | viability, T/C [26]: 33.7% | viability, T/C [27]: 27.5% | viability, T/C [28]: 23.7% | viability, T/C [29]: 17.8% | viability, T/C [30]: 17.5% | viability, T/C [31]: 23.3% | viability, T/C [32]: 20.3% | viability, T/C [33]: 17.9% | viability, T/C [34]: 14.2% | viability, T/C [35]: 13% | viability, T/C [36]: 12.8%

Nc1ccn(C2OC(CO)C(O)C2(F)F)c(=O)n1 (stereo not drawn) + C#Cc1c(F)ccc2cc(O)cc(-c3ncc4c(N5CC6CCC(C5)N6)nc(OCC56CCCN5CC(F)C6)nc4c3F)c12
IC50 (second compound 0.0316 µM): 6.36 nM | IC50 (second compound 0.1 µM): 6.3 nM | IC50 (second compound 0.316 µM): 6.51 nM | IC50 (second compound 1 µM): 6.09 nM | IC50 (second compound 3.16 µM): 5.96 nM | IC50 (second compound 10 µM): < 3.16 nM | viability, T/C (second compound 0.0316 µM, first compound 0.00316 µM): 98.4% | viability, T/C (second compound 0.0316 µM, first compound 0.01 µM): 18.8% | viability, T/C [1]: 8.96% | viability, T/C [2]: 11.8% | viability, T/C [3]: 11.1% | viability, T/C [4]: 14.4% | viability, T/C (second compound 0.1 µM, first compound 0.00316 µM): 93.6% | viability, T/C (second compound 0.1 µM, first compound 0.01 µM): 20.7% | viability, T/C [7]: 10.9% | viability, T/C [8]: 9.95% | viability, T/C [9]: 11.6% | viability, T/C [10]: 12.8% | viability, T/C (second compound 0.316 µM, first compound 0.00316 µM): 94.5% | viability, T/C (second compound 0.316 µM, first compound 0.01 µM): 23.5% | viability, T/C [13]: 10.9% | viability, T/C [14]: 10.3% | viability, T/C [15]: 11.8% | viability, T/C [16]: 11.8% | viability, T/C (second compound 1 µM, first compound 0.00316 µM): 90.4% | viability, T/C (second compound 1 µM, first compound 0.01 µM): 19.5% | viability, T/C [19]: 12.1% | viability, T/C [20]: 8.97% | viability, T/C [21]: 10.8% | viability, T/C [22]: 11% | viability, T/C (second compound 3.16 µM, first compound 0.00316 µM): 89% | viability, T/C (second compound 3.16 µM, first compound 0.01 µM): 18.3% | viability, T/C [25]: 9.24% | viability, T/C [26]: 9.65% | viability, T/C [27]: 9.37% | viability, T/C [28]: 9.7% | viability, T/C (second compound 10 µM, first compound 0.00316 µM): 37.7% | viability, T/C (second compound 10 µM, first compound 0.01 µM): 20.8% | viability, T/C [31]: 8.12% | viability, T/C [32]: 7.5% | viability, T/C [33]: 8.95% | viability, T/C [34]: 9.6%
